Reference: patent US12275731B2, “Azaindole inhibitors of wild-type and mutant forms of LRRK2” (DANA-FARBER CANCER INSTITUTE, INC., priority 2018, dated 2025)

Assays:
Assay in all cases: KinomeScan profiling
Type in all cases: binding
[1] = biological target: CAMK2D (Homo sapiens, UniProt Q13557); details: read-out: % control
In short: (§1)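 Test agents were profiled at a single concentration of 1 μM (DMSO vehicle) on a near-complete set of 468 kinases. Signal is reported relative to vehicle (100%) and a fully displacing control (0%).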

[2] = biological target: FLT4 (Homo sapiens, UniProt P35916); details: FLT4, 1 μM; read-out: % control
In short: as §1

[3] = biological target: T1, EPHA6 (Homo sapiens, UniProt Q9UF33); details: EPHA6, 1 μM; read-out: % control
T1 sequence (Q9UF33 23-1036): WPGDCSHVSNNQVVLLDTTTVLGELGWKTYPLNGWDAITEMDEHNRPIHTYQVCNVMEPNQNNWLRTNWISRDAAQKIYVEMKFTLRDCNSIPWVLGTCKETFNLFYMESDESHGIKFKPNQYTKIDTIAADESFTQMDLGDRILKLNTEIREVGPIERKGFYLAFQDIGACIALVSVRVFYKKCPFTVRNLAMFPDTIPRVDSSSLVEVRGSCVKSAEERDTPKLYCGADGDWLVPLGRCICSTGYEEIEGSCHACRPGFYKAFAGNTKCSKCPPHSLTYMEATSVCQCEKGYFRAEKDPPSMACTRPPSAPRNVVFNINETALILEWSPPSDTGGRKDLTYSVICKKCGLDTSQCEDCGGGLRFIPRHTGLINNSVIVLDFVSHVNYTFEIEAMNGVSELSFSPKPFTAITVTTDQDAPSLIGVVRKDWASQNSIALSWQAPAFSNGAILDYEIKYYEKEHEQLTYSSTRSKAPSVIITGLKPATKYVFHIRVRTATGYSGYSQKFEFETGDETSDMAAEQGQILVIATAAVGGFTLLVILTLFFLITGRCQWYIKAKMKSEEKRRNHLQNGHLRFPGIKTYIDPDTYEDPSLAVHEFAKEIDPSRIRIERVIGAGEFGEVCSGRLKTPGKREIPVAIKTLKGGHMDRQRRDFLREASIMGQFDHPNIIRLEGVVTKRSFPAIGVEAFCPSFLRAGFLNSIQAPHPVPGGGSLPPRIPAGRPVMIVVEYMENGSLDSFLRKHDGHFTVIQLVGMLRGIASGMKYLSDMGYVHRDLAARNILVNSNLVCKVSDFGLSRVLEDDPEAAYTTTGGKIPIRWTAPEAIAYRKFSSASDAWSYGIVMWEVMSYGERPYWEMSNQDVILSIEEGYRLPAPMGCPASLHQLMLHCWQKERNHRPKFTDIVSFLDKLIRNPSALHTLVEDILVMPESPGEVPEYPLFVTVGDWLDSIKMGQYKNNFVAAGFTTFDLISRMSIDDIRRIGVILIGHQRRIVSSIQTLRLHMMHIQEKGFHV
In short: as §1

[4] = biological target: T2, ACVR1 (Homo sapiens, UniProt Q04771); details: ACVR1, 1 μM; read-out: % control
T2 construct: purchased KinomeScan®
T2 sequence (Q04771 21-509): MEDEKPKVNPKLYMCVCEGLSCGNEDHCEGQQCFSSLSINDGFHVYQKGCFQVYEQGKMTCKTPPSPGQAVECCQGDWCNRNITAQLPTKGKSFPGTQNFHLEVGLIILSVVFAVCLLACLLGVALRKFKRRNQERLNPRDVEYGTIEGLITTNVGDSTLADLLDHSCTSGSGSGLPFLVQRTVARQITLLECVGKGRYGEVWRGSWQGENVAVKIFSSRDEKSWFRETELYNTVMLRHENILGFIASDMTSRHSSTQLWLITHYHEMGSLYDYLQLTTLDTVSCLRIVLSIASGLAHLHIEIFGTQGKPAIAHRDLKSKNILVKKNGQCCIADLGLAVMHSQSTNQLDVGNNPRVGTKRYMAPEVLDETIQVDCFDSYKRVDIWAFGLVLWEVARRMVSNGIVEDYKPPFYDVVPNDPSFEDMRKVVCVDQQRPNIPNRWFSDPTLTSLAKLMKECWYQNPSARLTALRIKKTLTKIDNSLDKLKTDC
In short: as §1

[5] = biological target: T3, FLT3(N841I) (Homo sapiens, UniProt P36888, N841I); details: read-out: % control
T3 sequence (P36888 27-993 N841I): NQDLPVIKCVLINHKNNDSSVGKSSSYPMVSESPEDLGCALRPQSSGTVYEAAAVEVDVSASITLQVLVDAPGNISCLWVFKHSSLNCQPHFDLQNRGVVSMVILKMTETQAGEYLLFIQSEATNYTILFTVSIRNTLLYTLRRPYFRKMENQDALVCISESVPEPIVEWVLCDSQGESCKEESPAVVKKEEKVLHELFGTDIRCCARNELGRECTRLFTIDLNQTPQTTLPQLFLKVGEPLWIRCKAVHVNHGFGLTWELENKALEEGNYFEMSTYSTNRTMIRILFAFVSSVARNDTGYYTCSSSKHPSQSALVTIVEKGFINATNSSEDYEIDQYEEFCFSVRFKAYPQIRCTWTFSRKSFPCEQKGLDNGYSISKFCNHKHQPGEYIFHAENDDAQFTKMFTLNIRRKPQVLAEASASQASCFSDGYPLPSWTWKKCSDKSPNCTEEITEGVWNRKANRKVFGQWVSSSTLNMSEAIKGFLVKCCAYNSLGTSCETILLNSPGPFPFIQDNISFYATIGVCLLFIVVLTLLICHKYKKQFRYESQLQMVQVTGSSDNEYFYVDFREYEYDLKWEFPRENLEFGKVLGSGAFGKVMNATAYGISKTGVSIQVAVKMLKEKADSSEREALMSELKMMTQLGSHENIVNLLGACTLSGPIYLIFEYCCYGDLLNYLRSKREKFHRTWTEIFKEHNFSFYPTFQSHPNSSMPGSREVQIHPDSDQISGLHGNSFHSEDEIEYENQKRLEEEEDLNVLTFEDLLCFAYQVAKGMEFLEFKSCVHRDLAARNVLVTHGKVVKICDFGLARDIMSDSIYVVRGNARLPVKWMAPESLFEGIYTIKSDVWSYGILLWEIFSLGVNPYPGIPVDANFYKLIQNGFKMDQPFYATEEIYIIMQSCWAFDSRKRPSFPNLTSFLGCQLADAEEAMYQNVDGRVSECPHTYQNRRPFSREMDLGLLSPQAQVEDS
In short: as §1

[6] = biological target: GSK3B (Homo sapiens, UniProt P49841); details: read-out: % control
In short: as §1

Chain of FLT4 (P35916 25-1363): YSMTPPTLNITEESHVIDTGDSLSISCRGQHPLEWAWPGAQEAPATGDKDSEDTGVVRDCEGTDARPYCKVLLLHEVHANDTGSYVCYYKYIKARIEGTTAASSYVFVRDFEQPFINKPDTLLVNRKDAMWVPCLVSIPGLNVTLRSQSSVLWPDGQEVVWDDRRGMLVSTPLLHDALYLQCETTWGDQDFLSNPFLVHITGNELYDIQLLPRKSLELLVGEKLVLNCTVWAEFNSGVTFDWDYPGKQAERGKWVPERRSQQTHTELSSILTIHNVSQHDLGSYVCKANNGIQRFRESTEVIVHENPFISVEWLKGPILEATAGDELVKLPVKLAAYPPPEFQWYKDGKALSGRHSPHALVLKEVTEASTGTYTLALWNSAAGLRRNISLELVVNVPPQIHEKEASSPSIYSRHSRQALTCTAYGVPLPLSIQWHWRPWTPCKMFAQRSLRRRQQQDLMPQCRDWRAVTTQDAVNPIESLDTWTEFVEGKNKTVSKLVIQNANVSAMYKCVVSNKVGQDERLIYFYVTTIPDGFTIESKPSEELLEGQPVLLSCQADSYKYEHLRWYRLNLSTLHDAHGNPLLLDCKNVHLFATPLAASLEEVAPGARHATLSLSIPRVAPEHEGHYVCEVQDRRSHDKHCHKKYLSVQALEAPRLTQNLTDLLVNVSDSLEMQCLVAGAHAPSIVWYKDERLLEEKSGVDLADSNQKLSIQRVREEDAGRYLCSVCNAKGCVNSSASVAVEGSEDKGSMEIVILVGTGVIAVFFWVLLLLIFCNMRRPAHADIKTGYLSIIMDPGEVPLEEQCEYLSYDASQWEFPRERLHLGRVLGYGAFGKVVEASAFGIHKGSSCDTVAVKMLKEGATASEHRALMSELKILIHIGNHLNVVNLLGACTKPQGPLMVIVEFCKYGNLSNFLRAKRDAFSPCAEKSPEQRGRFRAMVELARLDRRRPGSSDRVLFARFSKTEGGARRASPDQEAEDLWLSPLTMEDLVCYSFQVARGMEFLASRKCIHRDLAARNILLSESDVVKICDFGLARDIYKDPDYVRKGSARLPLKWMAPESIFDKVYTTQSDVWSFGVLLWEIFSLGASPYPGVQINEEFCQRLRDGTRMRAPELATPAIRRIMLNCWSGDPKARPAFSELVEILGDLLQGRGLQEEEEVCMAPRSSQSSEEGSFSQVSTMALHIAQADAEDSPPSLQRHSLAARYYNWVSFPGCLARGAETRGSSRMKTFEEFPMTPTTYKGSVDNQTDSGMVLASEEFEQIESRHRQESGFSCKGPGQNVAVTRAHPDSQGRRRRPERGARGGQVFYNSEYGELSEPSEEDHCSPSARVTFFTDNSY
Chain of GSK3B (P49841 whole entry): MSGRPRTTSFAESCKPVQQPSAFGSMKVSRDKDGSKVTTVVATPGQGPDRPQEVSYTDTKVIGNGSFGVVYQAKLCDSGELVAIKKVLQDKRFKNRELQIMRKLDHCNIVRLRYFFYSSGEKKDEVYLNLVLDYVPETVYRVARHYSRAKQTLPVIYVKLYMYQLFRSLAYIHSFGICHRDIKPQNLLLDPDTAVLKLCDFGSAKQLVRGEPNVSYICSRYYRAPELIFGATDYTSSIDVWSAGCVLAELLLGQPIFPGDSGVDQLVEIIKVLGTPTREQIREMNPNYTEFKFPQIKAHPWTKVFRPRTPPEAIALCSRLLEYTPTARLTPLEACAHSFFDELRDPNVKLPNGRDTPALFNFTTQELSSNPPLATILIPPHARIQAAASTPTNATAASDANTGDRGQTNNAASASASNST
Chain of CAMK2D (Q13557 whole entry): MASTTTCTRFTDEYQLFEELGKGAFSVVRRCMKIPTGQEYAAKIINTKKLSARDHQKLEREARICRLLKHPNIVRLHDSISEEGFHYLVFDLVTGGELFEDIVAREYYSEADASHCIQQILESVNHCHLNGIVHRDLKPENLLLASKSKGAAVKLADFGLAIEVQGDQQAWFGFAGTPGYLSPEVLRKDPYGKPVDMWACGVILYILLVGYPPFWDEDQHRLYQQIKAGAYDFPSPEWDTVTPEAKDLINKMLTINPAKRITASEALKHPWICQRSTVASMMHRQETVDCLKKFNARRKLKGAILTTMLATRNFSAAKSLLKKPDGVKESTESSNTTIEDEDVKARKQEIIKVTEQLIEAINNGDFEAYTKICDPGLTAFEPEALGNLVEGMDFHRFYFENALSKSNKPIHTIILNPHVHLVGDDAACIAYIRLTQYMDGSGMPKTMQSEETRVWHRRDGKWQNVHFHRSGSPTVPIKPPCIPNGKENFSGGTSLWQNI

Structure (SMILES)	remaining binding at 1 µM [1]	remaining binding at 1 µM [2]	remaining binding at 1 µM [3]	remaining binding at 1 µM [4]	remaining binding at 1 µM [5]	remaining binding at 1 µM [6]
CNc1c(-c2cnn([C@H]3CCN(C(C)=O)C[C@@H]3F)c2)cnc2[nH]cc(Cl)c12 [Compound 77, 1-((3S,4S)-4-(4-(3-chloro-4-(methylamino)-1H-pyrrolo[2,3-b]pyridin-5-yl)-1H-pyrazol-1-yl)-3-fluoropiperidin-1-yl)ethan-1-one]	100%	47%	93%	100%	1%	69%
O=C(c1ccc(-c2cnc3[nH]cc(Cl)c3c2NC2CCCC2)cc1)N1CCC(N2CCOCC2)CC1 [Compound 101, (4-(3-chloro-4-(cyclopentylamino)-1H-pyrrolo[2,3-b]pyridin-5-yl)phenyl)(4-morpholinopiperidin-1-yl)methanone]	93%	100%	43%	100%	2.6%	100%
CNc1c(-c2ccc(C(=O)N3CCC(N4CCOCC4)CC3)cc2)cnc2[nH]cc(Cl)c12 [Compound 96, (4-(3-chloro-4-(methylamino)-1H-pyrrolo[2,3-b]pyridin-5-yl)phenyl)(4-morpholinopiperidin-1-yl)methanone]	100%	66%	98%	81%	14%	63%
